# In patent US11986532B2 (Arvinas Operations, Inc., priority 2021, dated 2024):
# Where two headings read alike, the source gives them in different places.
# Target: T1, BCL6 (Homo sapiens, UniProt P41182)
# T1 construct: endogenous in cells; host or cells: T47D breast cancer epithelial cells
# Experiment: Immunofluorescence protocol for high content imaging of BCL6 (degradation) in T47D cells, 3 days compound treatment
# Format: cell-based
# Conditions: for DC50: read-out: Mean DC50 (nM)* category; for Dmax: read-out: Mean Dmax (%)** category
# Method in brief: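 T47D cells in RPMI1640-10% FBS were treated with an 11-point 3-fold dilution series (final top 0.1 or 1 μM) for 3 days at 37° C. After PFA fixation and Triton permeabilization, cells were immunostained with rabbit anti-BCL6 (1:300, overnight 4° C), Alexa-488 secondary, CellMask-647 and Hoechst, then imaged at 10×, 4 fields/well.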
# [1] = T47D cells, 3 days compound treatment
SMILES,DC50 [1] [nM],Dmax [1] [%],Dmax (T47D) [%],DC50 [nM]
"CNC(=O)COc1cc2cc(Nc3nc(N4CCC(CN5CCC6(CC5)CN(c5ccc7c(c5C)C(=O)N(C5CCC(=O)NC5=O)C7=O)C6)CC4)ncc3Cl)ccc2n(C(C)C)c1=O (centres unmarked) [Compound 358, 2-{[6-({5-chloro-2-[4-({2-[2-(2,6-dioxopiperidin-3-yl)-4-methyl-1,3-dioxo-2,3-dihydro-1H-isoindol-5-yl]-2,7-diazaspiro[3.5]nonan-7-yl}methyl)piperidin-1-yl]pyrimidin-4-yl}amino)-2-oxo-1-(propan-2-yl)-1,2-dihydroquinolin-3-yl]oxy}-N-methylacetamide]",,,50 to 70,< 10
"CNC(=O)COc1cc2cc(Nc3nc(N4CCC(O[C@H]5C[C@H](N6CCC(c7cc8c(cc7F)C(=O)N(C7CCC(=O)NC7=O)C8)CC6)C5)CC4)ncc3Cl)ccc2n(C(C)C)c1=O (some centres unmarked) [Compound 79, 2-({6-[(5-chloro-2-{4-[(1r,3r)-3-{4-[2-(2,6-dioxopiperidin-3-yl)-6-fluoro-1-oxo-2,3-dihydro-1H-isoindol-5-yl]piperidin-1-yl}cyclobutoxy]piperidin-1-yl}pyrimidin-4-yl)amino]-2-oxo-1-(propan-2-yl)-1,2-dihydroquinolin-3-yl}oxy)-N-methylacetamide]",< 10,50 to 70,,
"CNC(=O)COc1cc2cc(Nc3nc(N4CCC(O[C@H]5C[C@H](N6CCN(c7ccc8c(n7)CN(C7CCC(=O)NC7=O)C8=O)[C@H](C)C6)C5)CC4)ncc3Cl)ccc2n(C(C)C)c1=O (stereo partly drawn) [Compound 198, 2-({6-[(5-chloro-2-{4-[(1r,3r)-3-[(3R)-4-[6-(2,6-dioxopiperidin-3-yl)-5-oxo-5H,6H,7H-pyrrolo[3,4-b]pyridin-2-yl]-3-methylpiperazin-1-yl]cyclobutoxy]piperidin-1-yl}pyrimidin-4-yl)amino]-2-oxo-1-(propan-2-yl)-1,2-dihydroquinolin-3-yl}oxy)-N-methylacetamide]",< 10,≥ 70,,
"CNC(=O)COc1cc2cc(Nc3nc(N4CCC(N5CCC6(C5)CN(C5CCN(c7ccc8c(c7)CN(C7CCC(=O)NC7=O)C8=O)CC5)C6)CC4)ncc3Cl)ccc2n(C(C)C)c1=O (centres unmarked) [Compound 235, 2-{[6-({5-chloro-2-[4-(2-{1-[2-(2,6-dioxopiperidin-3-yl)-1-oxo-2,3-dihydro-1H-isoindol-5-yl]piperidin-4-yl}-2,6-diazaspiro[3.4]octan-6-yl)piperidin-1-yl]pyrimidin-4-yl}amino)-2-oxo-1-(propan-2-yl)-1,2-dihydroquinolin-3-yl]oxy}-N-methylacetamide]",,,50 to 70,< 10
"CNC(=O)COc1cc2cc(Nc3nc(N4CCC(OC5CCN(c6ccc7c(c6)CN(C6CCC(=O)NC6=O)C7=O)CC5)CC4)ncc3Cl)ccc2n(C(C)C)c1=O (centres unmarked) [Compound 28, 2-{[6-({5-chloro-2-[4-({1-[2-(2,6-dioxopiperidin-3-yl)-1-oxo-2,3-dihydro-1H-isoindol-5-yl]piperidin-4-yl}oxy)piperidin-1-yl]pyrimidin-4-yl}amino)-2-oxo-1-(propan-2-yl)-1,2-dihydroquinolin-3-yl]oxy}-N-methylacetamide]",< 10,50 to 70,,
"CNC(=O)COc1cc2cc(Nc3nc(N4CCC(O[C@H]5C[C@H](N6CCCC7(CCN(c8ccc9c(c8)C(=O)N(C8CCC(=O)NC8=O)C9=O)C7)C6)C5)CC4)ncc3Cl)ccc2n(C(C)C)c1=O (some centres unmarked) [Compound 355, 2-({6-[(5-chloro-2-{4-[(1r,3r)-3-{2-[2-(2,6-dioxopiperidin-3-yl)-1,3-dioxo-2,3-dihydro-1H-isoindol-5-yl]-2,7-diazaspiro[4.5]decan-7-yl}cyclobutoxy]piperidin-1-yl}pyrimidin-4-yl)amino]-2-oxo-1-(propan-2-yl)-1,2-dihydroquinolin-3-yl}oxy)-N-methylacetamide]",,,≥ 70,< 10
"CNC(=O)COc1cc2cc(Nc3nc(N4CCC5(CCN(CC6(F)CCN(c7cc(F)cc8c7CN(C7CCC(=O)NC7=O)C8=O)CC6)CC5)CC4)ncc3Cl)ccc2n(C(C)C)c1=O (centres unmarked) [Compound 109, 2-{[6-({5-chloro-2-[9-({1-[2-(2,6-dioxopiperidin-3-yl)-6-fluoro-1-oxo-2,3-dihydro-1H-isoindol-4-yl]-4-fluoropiperidin-4-yl}methyl)-3,9-diazaspiro [5.5]undecan-3-yl]pyrimidin-4-yl}amino)-2-oxo-1-(propan-2-yl)-1,2-dihydroquinolin-3-yl]oxy}-N-methylacetamide]",< 10,50 to 70,,
"CNC(=O)COc1cc2cc(Nc3nc(N4CCC(O[C@H]5CC[C@H](N6CCC(c7ccc8c(c7)C(=O)N(C7CCC(=O)NC7=O)C8=O)CC6)CC5)CC4)ncc3Cl)ccc2n(C(C)C)c1=O (some centres unmarked) [Compound 117, 2-[(6-{[5-chloro-2-(4-{[(1r,4r)-4-{4-[2-(2,6-dioxopiperidin-3-yl)-1,3-dioxo-2,3-dihydro-1H-isoindol-5-yl]piperidin-1-yl}cyclohexyl]oxy}piperidin-1-yl)pyrimidin-4-yl]amino}-2-oxo-1-(propan-2-yl)-1,2-dihydroquinolin-3-yl)oxy]-N-methylacetamide]",< 10,50 to 70,,
"CNC(=O)COc1cc2cc(Nc3nc(N4CCC(CN5CCC6(CC5)CC(c5ccc7c(c5)C(=O)N(C5CCC(=O)NC5=O)C7=O)C6)CC4)ncc3Cl)ccc2n(C(C)C)c1=O (centres unmarked) [Compound 150, 2-{[6-({5-chloro-2-[4-({2-[2-(2,6-dioxopiperidin-3-yl)-1,3-dioxo-2,3-dihydro-1H-isoindol-5-yl]-7-azaspiro[3.5]nonan-7-yl}methyl)piperidin-1-yl]pyrimidin-4-yl}amino)-2-oxo-1-(propan-2-yl)-1,2-dihydroquinolin-3-yl]oxy}-N-methylacetamide]",10 to 50,50 to 70,,
CNC(=O)COc1cc2cc(Nc3nc(N4CCC(O[C@H]5C[C@H](N6CCC(c7ccc8c(c7C)CN(C7CCC(=O)NC7=O)C8=O)CC6)C5)CC4)ncc3Cl)ccc2n(C(C)C)c1=O (some centres unmarked) [Compound 197],< 10,≥ 70,,

# Further lines, results first:
DC50 [1] [nM],Dmax [1] [%],Dmax (T47D) [%],DC50 [nM],SMILES
< 10,50 to 70,,,"CNC(=O)COc1cc2cc(Nc3nc(N4CCN(CC5CCN(c6cc(OC)cc7c6CN(C6CCC(=O)NC6=O)C7=O)CC5)CC4)ncc3Cl)ccc2n(C(C)C)c1=O (centres unmarked) [Compound 119, 2-{[6-({5-chloro-2-[4-({1-[2-(2,6-dioxopiperidin-3-yl)-6-methoxy-1-oxo-2,3-dihydro-1H-isoindol-4-yl]piperidin-4-yl}methyl)piperazin-1-yl]pyrimidin-4-yl}amino)-2-oxo-1-(propan-2-yl)-1,2-dihydroquinolin-3-yl]oxy}-N-methylacetamide]"
< 10,≥ 70,,,"CNC(=O)COc1cc2cc(Nc3nc(N4CCC(OC5CN([C@H]6CC[C@H](c7ccc8c(c7F)CN(C7CCC(=O)NC7=O)C8=O)CC6)C5)CC4)ncc3Cl)ccc2n(C(C)C)c1=O (some centres unmarked) [Compound 183, 2-{[6-({5-chloro-2-[4-({1-[(1r,4r)-4-[2-(2,6-dioxopiperidin-3-yl)-4-fluoro-1-oxo-2,3-dihydro-1H-isoindol-5-yl]cyclohexyl]azetidin-3-yl}oxy)piperidin-1-yl]pyrimidin-4-yl}amino)-2-oxo-1-(propan-2-yl)-1,2-dihydroquinolin-3-yl]oxy}-N-methylacetamide]"
< 10,50 to 70,,,"CNC(=O)COc1cc2cc(Nc3nc(N4CCC5(CCN(CC6CCN(c7cccc8c7CN(C7CCC(=O)NC7=O)C8=O)CC6)C5)C4)ncc3Cl)ccc2n(C(C)C)c1=O (centres unmarked) [Compound 12, 2-{[6-({5-chloro-2-[7-({1-[2-(2,6-dioxopiperidin-3-yl)-1-oxo-2,3-dihydro-1H-isoindol-4-yl]piperidin-4-yl}methyl)-2,7-diazaspiro[4.4]nonan-2-yl]pyrimidin-4-yl}amino)-2-oxo-1-(propan-2-yl)-1,2-dihydroquinolin-3-yl]oxy}-N-methylacetamide]"
< 10,50 to 70,,,"CNC(=O)COc1cc2cc(Nc3nc(N4CCC(CN5CC[C@]6(CCN(c7ccc8c(c7)CN([C@H]7CCC(=O)NC7=O)C8=O)C6)C5)CC4)ncc3Cl)ccc2n(C(C)C)c1=O [Compound 1, 2-[(6-{[5-chloro-2-(4-{[(5S)-7-{2-[(3S)-2,6-dioxopiperidin-3-yl]-1-oxo-2,3-dihydro-1H-isoindol-5-yl}-2,7-diazaspiro[4.4]nonan-2-yl]methyl}piperidin-1-yl)pyrimidin-4-yl]amino}-2-oxo-1-(propan-2-yl)-1,2-dihydroquinolin-3-yl)oxy]-N-methylacetamide]"
< 10,50 to 70,,,"CNC(=O)COc1cc2cc(Nc3nc(N4CCC(CN5CC6(CCN(c7cc8c(c(OC)c7)C(=O)N(C7CCC(=O)NC7=O)C8)CC6)C5)CC4)ncc3Cl)ccc2n(C(C)C)c1=O (centres unmarked) [Compound 115, 2-{[6-({5-chloro-2-[4-({7-[2-(2,6-dioxopiperidin-3-yl)-7-methoxy-1-oxo-2,3-dihydro-1H-isoindol-5-yl]-2,7-diazaspiro[3.5]nonan-2-yl}methyl)piperidin-1-yl]pyrimidin-4-yl}amino)-2-oxo-1-(propan-2-yl)-1,2-dihydroquinolin-3-yl]oxy}-N-methylacetamide]"
10 to 50,50 to 70,,,"CNC(=O)COc1cc2cc(Nc3nc(N4CCN(C[C@H]5C[C@@H](N6CCC(c7ccc8c(c7)C(=O)N(C7CCC(=O)NC7=O)C8=O)CC6)C5)CC4)ncc3Cl)ccc2n(C(C)C)c1=O (some centres unmarked) [Compound 40, 2-[(6-{[5-chloro-2-(4-{[(1s,3s)-3-{4-[2-(2,6-dioxopiperidin-3-yl)-1,3-dioxo-2,3-dihydro-1H-isoindol-5-yl]piperidin-1-yl}cyclobutyl]methyl}piperazin-1-yl)pyrimidin-4-yl]amino}-2-oxo-1-(propan-2-yl)-1,2-dihydroquinolin-3-yl)oxy]-N-methylacetamide]"
